System: male CD/Crl:CD(SD) rats
Experiment: Acute toxicity study, single peroral application, 14‐day observation
Type: in vivo
Conditions: for Ataxia / Chromodacryorrhea / Dyspnoea / Inhibition of body weight gain / Mean body weight gain, After 7 d / Mean body weight, After 7 d / Mortality within 6 h / Mortality within 7 h / Mortality within 14 h / Mortality within 24 h / Necropsy findings / Piloerection / Ptosis / Reduced motility / Reduced muscle tone / Mean body weight gain, End / Mean body weight, End / Mean body weight, Start: p.o., males, n = 5; for Mean body weight gain, End / Mean body weight, End: 14‐day observation; for Mean body weight, Start: before administration
Method: In total, 90 male CD®/Crl:CD(SD) rats from Charles River Laboratories, Deutschland GmbH, were used after randomization. Five rats were selected for each concentration of the corresponding experimental substance. […] In addition, a control group was formed with five rats receiving only the HPMC gel.
Feeding was stopped approximately 16 h before the start of test substance application, whereas tap water continued to be available ad libitum. Granulated structural wood was used as bedding material in the cages; the material was changed and the cages were cleaned twice a week. […] The rooms were illuminated (approximately 150 lux from a ceiling height of approximately 1.50 m) and darkened for 12 h in turns.
Each animal was kept under observation, so that any behavior deviating from the norm could be systematically recorded. Observations were made before the peroral application of the respective active substance, immediately after, and 5, 15, 30, and 60 min and 3, 6, and 24 h after the start of application. […] We focused on the changes in the skin and fur, the eyes and mucous membranes, respiration, circulation, the autonomous and central nervous systems, somatomotor activity, and behavior patterns. They were also observed for possible tremors, convulsions, salivation, diarrhea, lethargy, sleep, and coma. Mortality checks were performed at least once a day to minimize the loss of animals during the study. The time of death was recorded as accurately as possible. Individual body weights were recorded before the administration of experimental substances and, subsequently, at weekly intervals, until the end of the study and at death. Weight changes were calculated when survival exceeded 1 day.
At the end of the experiments, all surviving animals were sacrificed, dissected, and examined macroscopically. All notable pathological changes were recorded. A microscopic examination of all organs showing obvious lesions was performed on animals that survived for 24 h or longer. Autopsy and macroscopic inspection of prematurely deceased animals were performed as soon as possible after death.

For `CCCCCCCCCCCCn1ccnc1` [I‐an, 1‐imidazolyldodecane], the Ataxia (10 mg/kg b.w.) was “None”, the Chromodacryorrhea (10 mg/kg b.w.) was “None” and the Dyspnoea (10 mg/kg b.w.) was “None”. The “Inhibition of body weight gain” value (10 mg/kg b.w.) was “None”, the “Mean body weight gain, After 7 d” value (10 mg/kg b.w.) was “+24.4%” and the “Mean body weight, After 7 d” value (10 mg/kg b.w.) was 293.2 g. For the same compound, the “Mortality within 6 h” value (10 mg/kg b.w.) was 0, the “Mortality within 7 h” value (10 mg/kg b.w.) was 0 and the “Mortality within 14 h” value (10 mg/kg b.w.) was 0. The “Mortality within 24 h” value (10 mg/kg b.w.) was 0, the Necropsy findings (10 mg/kg b.w.) was “None” and the Piloerection (10 mg/kg b.w.) was “None”. The Ptosis (10 mg/kg b.w.) was “None”, the Reduced motility (10 mg/kg b.w.) was “None” and the Reduced muscle tone (10 mg/kg b.w.) was “None”. The “Mean body weight gain, End” value (10 mg/kg b.w.) was “+39.4%”, the “Mean body weight, End” value (10 mg/kg b.w.) was 328.4 g and the “Mean body weight, Start” value (10 mg/kg b.w.) was 235.6 g. For the same compound, the Ataxia (50 mg/kg b.w.) was “None”, the Chromodacryorrhea (50 mg/kg b.w.) was “None” and the Dyspnoea (50 mg/kg b.w.) was “None”. The “Inhibition of body weight gain” value (50 mg/kg b.w.) was “None”, the “Mean body weight gain, After 7 d” value (50 mg/kg b.w.) was “+26.6%” and the “Mean body weight, After 7 d” value (50 mg/kg b.w.) was 296.4 g. For the same compound, the “Mortality within 6 h” value (50 mg/kg b.w.) was 0, the “Mortality within 7 h” value (50 mg/kg b.w.) was 0 and the “Mortality within 14 h” value (50 mg/kg b.w.) was 0. For the same compound, the “Mortality within 24 h” value (50 mg/kg b.w.) was 0, the Necropsy findings (50 mg/kg b.w.) was “None” and the Piloerection (50 mg/kg b.w.) was “None”. The Ptosis (50 mg/kg b.w.) was “None”, the Reduced motility (50 mg/kg b.w.) was “None” and the Reduced muscle tone (50 mg/kg b.w.) was “None”. The “Mean body weight gain, End” value (50 mg/kg b.w.) was “+40.6%”, the “Mean body weight, End” value (50 mg/kg b.w.) was 329.2 g and the “Mean body weight, Start” value (50 mg/kg b.w.) was 234.2 g. For the same compound, the Ataxia (100 mg/kg b.w.) was “None”, the Chromodacryorrhea (100 mg/kg b.w.) was “None” and the Dyspnoea (100 mg/kg b.w.) was “None”. For the same compound, the “Inhibition of body weight gain” value (100 mg/kg b.w.) was “None”, the “Mean body weight gain, After 7 d” value (100 mg/kg b.w.) was “+22.0%” and the “Mean body weight, After 7 d” value (100 mg/kg b.w.) was 283.6 g. For the same compound, the “Mortality within 6 h” value (100 mg/kg b.w.) was 0, the “Mortality within 7 h” value (100 mg/kg b.w.) was 0 and the “Mortality within 14 h” value (100 mg/kg b.w.) was 0. The “Mortality within 24 h” value (100 mg/kg b.w.) was 0, the Necropsy findings (100 mg/kg b.w.) was “None” and the Piloerection (100 mg/kg b.w.) was “None”. The Ptosis (100 mg/kg b.w.) was “None”, the Reduced motility (100 mg/kg b.w.) was “None” and the Reduced muscle tone (100 mg/kg b.w.) was “None”. For the same compound, the “Mean body weight gain, End” value (100 mg/kg b.w.) was “+34.2%”, the “Mean body weight, End” value (100 mg/kg b.w.) was 311.8 g and the “Mean body weight, Start” value (100 mg/kg b.w.) was 232.4 g. The Ataxia (250 mg/kg b.w.) was “None”, the Chromodacryorrhea (250 mg/kg b.w.) was “None” and the Dyspnoea (250 mg/kg b.w.) was “None”. For the same compound, the “Inhibition of body weight gain” value (250 mg/kg b.w.) was “None”, the “Mean body weight gain, After 7 d” value (250 mg/kg b.w.) was “+19.4%” and the “Mean body weight, After 7 d” value (250 mg/kg b.w.) was 266.2 g. The “Mortality within 6 h” value (250 mg/kg b.w.) was 0, the “Mortality within 7 h” value (250 mg/kg b.w.) was 0 and the “Mortality within 14 h” value (250 mg/kg b.w.) was 0. The “Mortality within 24 h” value (250 mg/kg b.w.) was 0, the Necropsy findings (250 mg/kg b.w.) was “None” and the Piloerection (250 mg/kg b.w.) was “None”. For the same compound, the Ptosis (250 mg/kg b.w.) was “None”, the Reduced motility (250 mg/kg b.w.) was “None” and the Reduced muscle tone (250 mg/kg b.w.) was “None”. For the same compound, the “Mean body weight gain, End” value (250 mg/kg b.w.) was “+32.7%”, the “Mean body weight, End” value (250 mg/kg b.w.) was 296.0 g and the “Mean body weight, Start” value (250 mg/kg b.w.) was 223.0 g. For the same compound, the Toxic signs (250 mg/kg bw) was “None”, the “Time of premature death” value (500 mg/kg b.w.) was 6 days and the Ataxia (500 mg/kg b.w.) was “None”. The Chromodacryorrhea (500 mg/kg b.w.) was “None”, the Dyspnoea (500 mg/kg b.w.) was “None” and the “Inhibition of body weight gain” value (500 mg/kg b.w.) was “None”. For the same compound, the “Mean body weight gain, After 7 d” value (500 mg/kg b.w.) was “+21.8%”, the “Mean body weight, After 7 d” value (500 mg/kg b.w.) was 288.7 g and the “Mortality within 6 h” value (500 mg/kg b.w.) was 0. The “Mortality within 7 h” value (500 mg/kg b.w.) was 2, the “Mortality within 14 h” value (500 mg/kg b.w.) was 2 and the “Mortality within 24 h” value (500 mg/kg b.w.) was 0. For the same compound, the Necropsy findings (500 mg/kg b.w.) was “None”, the Piloerection (500 mg/kg b.w.) was “None” and the Ptosis (500 mg/kg b.w.) was “None”. For the same compound, the Reduced motility (500 mg/kg b.w.) was “None”, the Reduced muscle tone (500 mg/kg b.w.) was “None” and the “Mean body weight gain, End” value (500 mg/kg b.w.) was “+38.4%”. For the same compound, the “Mean body weight, End” value (500 mg/kg b.w.) was 328.0 g, the “Mean body weight, Start” value (500 mg/kg b.w.) was 237.0 g and the Toxic signs (500 mg/kg bw) was “Mortality”. The “Time of premature death” value (1000 mg/kg b.w.) was 5 days, the Ataxia (1000 mg/kg b.w.) was “None” and the Chromodacryorrhea (1000 mg/kg b.w.) was “None”. The Dyspnoea (1000 mg/kg b.w.) was “None”, the “Inhibition of body weight gain” value (1000 mg/kg b.w.) was “None” and the “Mean body weight gain, After 7 d” value (1000 mg/kg b.w.) was “+15.0%”. For the same compound, the “Mean body weight, After 7 d” value (1000 mg/kg b.w.) was 270.3 g, the “Mortality within 6 h” value (1000 mg/kg b.w.) was 0 and the “Mortality within 7 h” value (1000 mg/kg b.w.) was 1. For the same compound, the “Mortality within 14 h” value (1000 mg/kg b.w.) was 1, the “Mortality within 24 h” value (1000 mg/kg b.w.) was 0 and the Necropsy findings (1000 mg/kg b.w.) was “None”. The Piloerection (1000 mg/kg b.w.) was “None”, the Ptosis (1000 mg/kg b.w.) was “None” and the Reduced motility (1000 mg/kg b.w.) was “None”. The Reduced muscle tone (1000 mg/kg b.w.) was “None”, the “Mean body weight gain, End” value (1000 mg/kg b.w.) was “+36.2%” and the “Mean body weight, End” value (1000 mg/kg b.w.) was 320.0 g. For the same compound, the “Mean body weight, Start” value (1000 mg/kg b.w.) was 235.0 g, the Toxic signs (1000 mg/kg bw) was “Mortality” and the “Premature deaths in the acute toxicity study” value (all dose groups, 30 rats per substance) was “three”. The Macroscopic necropsy findings (all doses) was “None”, the Lowest lethal dose (rats, single p.o. dose) was 500 mg/kg bw and the “No Observed Adverse Effect Level” value (rats, single p.o. dose) was 250 mg/kg bw. For the same compound, the “LD50(14 d)” value (rats, single p.o. dose, 14 days) was over 1000 mg/kg bw.

Reference: paper PMC7995547, “ω‐Imidazolyl‐alkyl derivatives as new preclinical drug candidates for treating non‐alcoholic steatohepatitis” (Physiological Reports, 2021)
